{
  "source": "patent US7943621B2",
  "about": "“Salts of piperazine compounds as D3/D2 antagonists” (Richter Gedeon Nyrt., priority 2008, dated 2011)",
  "key": {"[1]": {"assay": "stability when stored in the solid state (long term and accelerated)", "assay_type": "physicochemical"}, "[2]": {"assay": "thermal stability by thermogravimetric (TG) and DSC analysis", "assay_type": "physicochemical", "conditions": "solvent-free anhydrous form, 10° C./min, N2", "experimental": "The characterization of trans 4-{2-[4-(2,3-dichlorophenyl)-piperazine-1-yl]-ethyl}-N,N-dimethylcarbamoyl-cyclohexylamine monohydrochloride was carried out by thermogravimetric (TG), differential scanning […] (DSC), infrared spectroscopic (FT-IR), Raman spectroscopic (FT-Raman) and powder X-ray diffraction (PXRD) solid phase analytical methods."}},
  "note": "Where a name gives a salt, the structure may show the parent alone.",
  "data": [
    {"smiles": "CN(C)C(=O)NC1CCC(CCN2CCN(c3cccc(Cl)c3Cl)CC2)CC1", "note": "(stereo not drawn) [monohydrochloride, Trans 4-{2-[4-(2,3-dichlorophenyl)-piperazine-1-yl]-ethyl}-N,N-dimethylcarbamoyl-cyclohexylamine monohydrochloride]", "values": [
      {"measurement": "long term stability", "setting": "[1]; 25±2° C./60±5% RH", "value": 48, "unit": "months"},
      {"measurement": "accelerated stability", "setting": "[1]; 40±2° C./75±5% RH", "value": 6, "unit": "months"},
      {"measurement": "satisfactory thermal stability up to", "setting": "[2]", "value": "about 200 °C"}
    ]}
  ]
}
